Data taken from patent publication US20100256107A1, “PREPARATION COMPOSITION” (Dainippon Sumitomo Pharma Co., Ltd., priority 2007, published 2010).

Assays:
[1] = Stability in an aqueous solution of a formulation containing sodium bicarbonate (HPLC); assay type: physicochemical; settings: for reduction of amount of Compound A: 6 hours at 25° C.
Procedure: Multiple vials were prepared and amounts of Compound A and sodium bicarbonate indicated in Table 5 were weighed and filled in each vial. Thereto was added physiological saline (100 ml). Amounts of Compound A and its degradation, Compounds B and C were measured just after dissolution and after preservation for 6 hours at 25° C.
• column: SUMIPAX ODS-A212 (silica gel binding with octadecyl group, • particle size: 5 μm; 6.0 mmφ×15 cm) • detector: ultraviolet spectrophotometer (wavelength: 220 nm) • column temperature: constant temperature around at 25° C. • mobile phase: A solution; 5 mmol/L phosphate buffer (pH7) and acetonitrile (300:23), B solution: acetonitrile • flow rate: 1.0 mL/min. • gradient condition: as shown in Table 6
The numbers described in columns of “just after dissolution” and “after preservation for 6 hours at 25° C.” on Table 8 show area % per total peaks which appear until 55 minutes under the above HPLC conditions.

[2] = Control of coloration in an aqueous solution formulation containing sodium carbonate (absorbance 380 nm); assay type: physicochemical; settings: for change in absorbance, just after dissolution / change in absorbance, preservation time 1 hr / change in absorbance, preservation time 2 hr / change in absorbance, preservation time 3 hr / change in absorbance, preservation time 4 hr / change in absorbance, preservation time 5 hr / change in absorbance, preservation time 6 hr: 25° C., 380 nm
Procedure: Multiple vials were prepared, and sodium carbonate, Compound A and imipenem in amounts indicated in Table 14 were weighed, respectively and each mixture was put in each vial. A physiological saline (100 ml) was added to each vial to be dissolved. Coloration (change of color) just after dissolution and when the solution was preserved at one hour intervals for 6 hours at 25° C. were measured by absorbency on Compound A and imipenem.
• Condition of measurement by spectrophotometer • cell: quartz 12.5 mm×12.5 mm×45 mm, capacity 3.5 ml • wavelength: 380 nm • measurement temperature: 25° C. • instrument: UV-2200A (Shimadzu)
The numbers described in columns of “just after dissolution” and each “preservation time” on Table 15 show values of change in absorbance just after dissolution when measured under the above conditions.

[3] = Comp. A 0.5 g/vial + sodium bicarbonate 0.0 mg/vial in physiological saline 100 ml
[4] = Comp. A 0.5 g/vial + sodium bicarbonate 1.0 mg/vial in physiological saline 100 ml
[5] = Comp. A 0.5 g/vial + sodium bicarbonate 2.5 mg/vial in physiological saline 100 ml
[6] = Comp. A 0.5 g/vial + sodium bicarbonate 5.0 mg/vial in physiological saline 100 ml
[7] = Comp. A 0.5 g/vial + sodium bicarbonate 10 mg/vial in physiological saline 100 ml
[8] = Comp. A 0.5 g/vial + sodium bicarbonate 15 mg/vial in physiological saline 100 ml
[9] = Comp. A 0.5 g/vial + sodium bicarbonate 20 mg/vial in physiological saline 100 ml
[10] = Comp. A 0.5 g/vial + sodium bicarbonate 50 mg/vial in physiological saline 100 ml
[11] = Comp. A 0.5 g/vial + sodium bicarbonate 100 mg/vial in physiological saline 100 ml
[12] = 0.5 g/vial + sodium carbonate 0.0 mg/vial in physiological saline 100 ml
[13] = 0.5 g/vial + sodium carbonate 1.0 mg/vial in physiological saline 100 ml
[14] = 0.5 g/vial + sodium carbonate 1.5 mg/vial in physiological saline 100 ml
[15] = 0.5 g/vial + sodium carbonate 2.0 mg/vial in physiological saline 100 ml
[16] = 0.5 g/vial + sodium carbonate 2.5 mg/vial in physiological saline 100 ml
[17] = 0.5 g/vial + sodium carbonate 3.0 mg/vial in physiological saline 100 ml

Comp. A after preservation for 6 hrs. at 25° C. [1, 3]: 95.8 area %
Comp. A just after dissolution [1, 3]: 98.8 area %
Comp. B after preservation for 6 hrs. at 25° C. [1, 3]: 3.0 area %
Comp. B just after dissolution [1, 3]: 0.7 area %
Comp. C after preservation for 6 hrs. at 25° C. [1, 3]: 0.5 area %
Comp. C just after dissolution [1, 3]: 0.0 area %
Comp. A after preservation for 6 hrs. at 25° C. [1, 4]: 96.6 area %
Comp. A just after dissolution [1, 4]: 98.9 area %
Comp. B after preservation for 6 hrs. at 25° C. [1, 4]: 2.7 area %
Comp. B just after dissolution [1, 4]: 0.7 area %
Comp. C after preservation for 6 hrs. at 25° C. [1, 4]: 0.2 area %
Comp. C just after dissolution [1, 4]: 0.0 area %
Comp. A after preservation for 6 hrs. at 25° C. [1, 5]: 96.6 area %
Comp. A just after dissolution [1, 5]: 98.9 area %
Comp. B after preservation for 6 hrs. at 25° C. [1, 5]: 2.8 area %
Comp. B just after dissolution [1, 5]: 0.7 area %
Comp. C after preservation for 6 hrs. at 25° C. [1, 5]: ≤ 0.1 area %
Comp. C just after dissolution [1, 5]: 0.0 area %
Comp. C after preservation for 6 hrs. at 25° C. ([1]; Comp. A 0.5 g/vial + sodium bicarbonate 2.5 mg/vial in physiological saline 100 ml, listed as Comp. A): 0.0 area %
Comp. A after preservation for 6 hrs. at 25° C. [1, 6]: 96.3 area %
Comp. A just after dissolution [1, 6]: 98.9 area %
Comp. B after preservation for 6 hrs. at 25° C. [1, 6]: 3.0 area %
Comp. B just after dissolution [1, 6]: 0.6 area %
Comp. C after preservation for 6 hrs. at 25° C. [1, 6]: 0.0 area %
Comp. C just after dissolution [1, 6]: 0.0 area %
Comp. A after preservation for 6 hrs. at 25° C. [1, 7]: 95.9 area %
Comp. A just after dissolution [1, 7]: 98.9 area %
Comp. B after preservation for 6 hrs. at 25° C. [1, 7]: 3.5 area %
Comp. B just after dissolution [1, 7]: 0.7 area %
Comp. C after preservation for 6 hrs. at 25° C. [1, 7]: 0.0 area %
Comp. C just after dissolution [1, 7]: 0.0 area %
Comp. A after preservation for 6 hrs. at 25° C. [1, 8]: 95.4 area %
Comp. A just after dissolution [1, 8]: 98.9 area %
Comp. B after preservation for 6 hrs. at 25° C. [1, 8]: 3.9 area %
Comp. B just after dissolution [1, 8]: 0.6 area %
Comp. C after preservation for 6 hrs. at 25° C. [1, 8]: 0.0 area %
Comp. C just after dissolution [1, 8]: 0.0 area %
Comp. A after preservation for 6 hrs. at 25° C. [1, 9]: 95.2 area %
Comp. A just after dissolution [1, 9]: 98.8 area %
Comp. B after preservation for 6 hrs. at 25° C. [1, 9]: 4.1 area %
Comp. B just after dissolution [1, 9]: 0.6 area %
Comp. C after preservation for 6 hrs. at 25° C. [1, 9]: 0.0 area %
Comp. C just after dissolution [1, 9]: 0.0 area %
Comp. A after preservation for 6 hrs. at 25° C. [1, 10]: 93.5 area %
Comp. A just after dissolution [1, 10]: 98.6 area %
Comp. B after preservation for 6 hrs. at 25° C. [1, 10]: 5.5 area %
Comp. B just after dissolution [1, 10]: 0.7 area %
Comp. C after preservation for 6 hrs. at 25° C. [1, 10]: 0.0 area %
Comp. C just after dissolution [1, 10]: 0.0 area %
Comp. A after preservation for 6 hrs. at 25° C. [1, 11]: 92.4 area %
Comp. A just after dissolution [1, 11]: 98.9 area %
Comp. B after preservation for 6 hrs. at 25° C. [1, 11]: 6.6 area %
Comp. B just after dissolution [1, 11]: 0.6 area %
Comp. C after preservation for 6 hrs. at 25° C. [1, 11]: 0.0 area %
Comp. C just after dissolution [1, 11]: 0.0 area %
reduction of amount of Compound A ([1]; sodium bicarbonate increased to 20 mg from 15 mg per Compound A 500 mg): 0.2%
reduction of amount of Compound A ([1]; sodium bicarbonate increased to 50 mg from 20 mg per Compound A 500 mg): 1.7%
change in absorbance, just after dissolution [2, 12]: 0.00 Abs
change in absorbance, preservation time 1 hr [2, 12]: 0.01 Abs
change in absorbance, preservation time 2 hr [2, 12]: 0.03 Abs
change in absorbance, preservation time 3 hr [2, 12]: 0.05 Abs
change in absorbance, preservation time 4 hr [2, 12]: 0.07 Abs
change in absorbance, preservation time 5 hr [2, 12]: 0.11 Abs
change in absorbance, preservation time 6 hr [2, 12]: 0.13 Abs
change in absorbance, just after dissolution [2, 13]: 0.00 Abs
change in absorbance, preservation time 1 hr [2, 13]: 0.00 Abs
change in absorbance, preservation time 2 hr [2, 13]: 0.00 Abs
change in absorbance, preservation time 3 hr [2, 13]: 0.01 Abs
change in absorbance, preservation time 4 hr [2, 13]: 0.02 Abs
change in absorbance, preservation time 5 hr [2, 13]: 0.03 Abs
change in absorbance, preservation time 6 hr [2, 13]: 0.04 Abs
change in absorbance, just after dissolution [2, 14]: 0.00 Abs
change in absorbance, preservation time 1 hr [2, 14]: 0.00 Abs
change in absorbance, preservation time 2 hr [2, 14]: 0.00 Abs
change in absorbance, preservation time 3 hr [2, 14]: 0.00 Abs
change in absorbance, preservation time 4 hr [2, 14]: 0.00 Abs
change in absorbance, preservation time 5 hr [2, 14]: 0.01 Abs
change in absorbance, preservation time 6 hr [2, 14]: 0.02 Abs
change in absorbance, just after dissolution [2, 15]: 0.00 Abs
change in absorbance, preservation time 1 hr [2, 15]: 0.00 Abs
change in absorbance, preservation time 2 hr [2, 15]: 0.00 Abs
change in absorbance, preservation time 3 hr [2, 15]: 0.00 Abs
change in absorbance, preservation time 4 hr [2, 15]: 0.00 Abs
change in absorbance, preservation time 5 hr [2, 15]: 0.00 Abs
change in absorbance, preservation time 6 hr [2, 15]: 0.01 Abs
change in absorbance, just after dissolution [2, 16]: 0.00 Abs
change in absorbance, preservation time 1 hr [2, 16]: 0.00 Abs
change in absorbance, preservation time 2 hr [2, 16]: 0.00 Abs
change in absorbance, preservation time 3 hr [2, 16]: 0.00 Abs
change in absorbance, preservation time 4 hr [2, 16]: 0.00 Abs
change in absorbance, preservation time 5 hr [2, 16]: 0.00 Abs
change in absorbance, preservation time 6 hr [2, 16]: 0.00 Abs
change in absorbance, just after dissolution [2, 17]: 0.00 Abs
change in absorbance, preservation time 1 hr [2, 17]: 0.00 Abs
change in absorbance, preservation time 2 hr [2, 17]: 0.00 Abs
change in absorbance, preservation time 3 hr [2, 17]: 0.00 Abs
change in absorbance, preservation time 4 hr [2, 17]: 0.00 Abs
change in absorbance, preservation time 5 hr [2, 17]: 0.00 Abs
change in absorbance, preservation time 6 hr [2, 17]: 0.00 Abs
suppression of coloration of the solution ([2]; at least 1.5 mg (0.003 part by weight) of sodium carbonate per 500 mg): observed
SMILES: C[C@H]1C=C(c2csc(SC3=C(C(=O)O)N4C(=O)[C@H]([C@@H](C)O)[C@H]4[C@H]3C)n2)CN1 [Compound A, (4R,5S,6S)-6-[(1R)-1-hydroxyethyl]-4-methyl-3-({4-[(5S)-5-methyl-2,5-dihydro-1H-pyrrol-3-yl]-1,3-thiazol-2-yl}sulfanyl)-7-oxo-1-azabicyclo[3.2.0]hept-2-ene-2-carboxylic acid]
coloration by the visual inspection compared with a solution just after dissolution ([2]; 1.5 mg additive per 500 mg (printed sodium bicarbonate; Table 15: sodium carbonate), 6 hours at 25° C.): coloration was not observed by the visual inspection
